Patent US20250163045A1, “COMPOUNDS FOR TREATMENT OF HAIR LOSS” (Pelage Pharmaceuticals, Inc., priority 2021, published 2025)

Assay: Solubility of compounds in topical formulations (stirred, visual dissolution)
Format: physicochemical
Details: for Solubility in Non-Aqueous Formulation: Non-Aqueous Formulation (50% PEG400, 15% Transcutol P, 25% ethanol, 10% DMSO)
Source text: Several formulations were used to evaluate the solubility of the various compounds. Although any suitable pharmaceutical formulation may be used for the compounds, formulations such as those described below are suitable for administration of the compounds to the hair or scalp of a mammal such as a human being. The formulation may be sterilized before applying to a mammal such as a human being. • A Non-Aqueous Formulation, containing 50% PEG400, 15% Transcutol® P, 25% ethanol, and 10% DMSO was manufactured using the following general process: 10 g of PEG400, 3 g of Transcutol® P, 5 g of ethanol, and 2 g of DMSO were added to a clear vial. The mixture was then stirred using a stir bar until homogenous. • Aqueous Formulation 1, containing 10% PEG400, 20% Transcutol® HP, 45% ethanol, and 25% water was manufactured using the following general process: in a large amber pyrex bottle, 1) 19.98 g of PEG400 was added; 2) 40.07 g of Transcutol® HP was added; 3) 90 g of ethanol was added; 4) 50.03 g of water was added; and 5) the mixture was stirred using a magnetic stir bar for 30 mins at 800 rpm. • Aqueous Formulation 2, containing 10% propylene glycol, 20% Transcutol® HP, 45% ethanol, and 25% water was manufactured using the following process: in a large amber pyrex bottle, 1) 10.03 g propylene glycol was added; 2) 20.03 g Transcutol® HP was added; 3) 44.99 g ethanol was added; 4) 25.02 g water was added; and 5) the mixture was stirred using a magnetic stir bar for 30 mins at 800 rpm.
The solubilities of several compounds shown below in the described formulations are indicated below.
• Aqueous Formulation 1: 0.5 mg Reference Compound and 9.9996 g Aqueous Formulation 1 (0.005% w/w) were stirred at 600 RPM for 1 hour. The Reference Compound remained undissolved in 1 hour; • Aqueous Formulation 2: 0.5 mg Reference Compound and 10.0006 g Aqueous Formulation 2 (0.005% w/w) were stirred at 600 RPM for 1 hour. […]

Solubility in Non-Aqueous Formulation (dissolved / remained undissolved in 1 hour) [% w/w] | Solubility in Non-Aqueous Formulation (remained undissolved in 24 hours) [% w/w] | Solubility in Aqueous Formulation 1 (Aqueous Formulation 1 (10% PEG400, 20% Transcutol HP, 45% ethanol, 25% water), stirred at 600 RPM for 1 hour) [% w/w] | Compound
≥ 0.1 | < 0.2 | – | N#C/C(=C\c1cn(-c2cccc(C(F)(F)F)c2)c2ncccc12)C(=O)O [Compound 3, (E)-2-cyano-3-(1-(3-(trifluoromethyl)phenyl)-1H-pyrrolo[2,3-b]pyridin-3-yl)acrylic acid]
– | – | < 0.005 | N#C/C(=C\c1cn(Cc2cc(C(F)(F)F)cc(C(F)(F)F)c2)c2ncccc12)C(=O)O [Reference Compound, (E)-3-(1-(3,5-bis(trifluoromethyl)benzyl)-1H-pyrrolo[2,3-b]pyridin-3-yl)-2-cyanoacrylic acid, reference compound]
